Assay results from patent US20200022964A1, “COMPOSITIONS AND METHODS FOR TREATMENT OF INFLAMMATORY AUTOIMMUNE DISEASES” (New York University, priority 2018, published 2020).

Legend:
[1] = test system: TNF-α/NF-κB pathway; assay: TNF-tg:NF-κB-Luc double mutant mice, luciferase imaging by IVIS; assay type: in vivo; conditions: for in vivo inhibition of the TNF-α/NF-κB pathway: FFD 2 or 10 mg/kg, TFD 10 or 50 mg/kg orally for 7 days; for TNF-tg:NF-κB activated luciferase in vivo: third round screen, treatment for 7 days
Description: In vitro and in vivo screen of FDA-approved drug library. NF-κB-bla THP-1 cell line in which NF-κB beta-lactamase reporter gene was stably integrated, RAW 264.7 macrophages in which NF-κB luciferase reporter gene was transiently transfected, and TNF-tg:NF-κB-Luc double mutant reporter mice were employed to screen the drug library.
Screening and confirming the drugs' anti-TNF activity in vivo. TNF-tg mice and NF-κB luc mice were purchased from Jackson Laboratory and housed in Skirball Animal Facility of New York University Langone Medical Center. All animal experiments have been approved by Institutional Animal Care and Use Committee (IACUC) of New York University School of Medicine. We generated the TNF-tg/NF-κB-Luc mice by mating TNF-tg mice with NF-κB-Luc mice. After genotypes were confirmed by genotyping and bioluminescence via IVIS, the TNF-tg/NF-κB-Luc mice were orally treated daily with one of the 8 drugs selected in screen two for 7 days. The luciferase activity was detected by IVIS 15 minutes after the injection of D-Luciferin (LUCK-1G, Gold biotechnology).

[2] = test system: CD4+ T cells; assay: Spleen CD4+ T cell differentiation in vitro and splenic T cell composition in vivo; assay type: cell-based, mice
Procedure: Spleen CD4^+T cell differentiation. Inducing spleen naive CD4^+T cell differentiation into T cell subsets was performed. Briefly, after preparing the splenic naïve CD4^+T cells from wild-type 8-12 week old C57BL/6 mice, the following cytokines were added to induce naive CD4^+T cell differentiation into T cell subsets: IL-2 (20 ng/mL), IL-12 (15 ng/mL), and anti-IL4 (5 μg/mL) for Thl; IL-2 (20 ng/mL), IL-4 (10 ng/mL), and anti-IFNγ (5 μg/mL) for Th2; IL-6 (20 ng/mL), TGFβ (3 ng/mL), anti-IFNγ (5 μg/mL), and anti-IL4 (5 μg/mL) for Th17; IL-2 (20 ng/mL), TGFβ (15 ng/mL), anti-IFNγ (5 μg/mL), and anti-IL4 (5 μg/mL) for Treg. […] Before collecting cells for fluorescence staining, 1 μL Golgi stop from Fixation/Permeabilization Solution Kit with BD GolgiPlug™ (555028,BD Biosciences) was added to each well and incubated in the plate for 4 hours. Cells were stained according to the kit specifications. For each T cell subtype, the combination of fluorescence dyes was as follows: FITC-CD4 (M1004502, Sungene) and Percp-cy5.5-IFNγ (45-7311-82, eBioscience) for Th1; FITC-CD4 and PE-IL4 (554389, BD pharmingen) for Th2; FITC-CD4 and PE-IL-17A (12-7177-81, eBioscience) for Th17; FITC-CD4, PE-CD25 (102008, Biolegend) and Alex-Fluo647-FoxP3 (51-5773-80, eBioscience) for Treg. Then the samples were analyzed at NYU core facilities using a FACS Calibur cell analyzer with CellQuest software. […] Frozen splenic tissue specimens from TNFα Tg mice treated with or without TFD or FFD were stained and analyzed dual immunofluorescence. All sections were permeabilized with 0.1% NP40 in PBS, and then blocked in 5% donkey serum for 30 min at RT, followed by incubated with anti-IFNg (Th1), anti-IL-4 (Th2), anti-IL17 (Th17) and anti-foxp3 (Treg) diluted in 5% donkey serum at 4° C. overnight. On the second day, after washed 3 times in PBS, the sections were incubated with Cy2-conjugated donkey anti-rat IgG for 30 min at RT. After wash, the sections were furthered stained with FITC conjugated anti-CD4 for I hour at RT. To determine the macrophage polarization, sections were double stained with anti-CD68 and iNOS (M1) or CD206 (M2). DAPI were used to stain the nuclei. The fluorescence intensity of cells was quantified by Image J software.

[3] = test system: TNF-α induced AA production; assay: Arachidonic acid detection in BMDMs; assay type: cell-based, mice; conditions: TNF-α 10 ng/mL, 48 hours
Description: Arachidonic acid detection. […] The result was detected at 450nm by automatic plate reader (SpectraMax i3x system, 5025027A, Molecular Devices). ATK was implemented as a positive control.

[4] = biological target: T1, cPLA2 (Homo sapiens, UniProt P47712); assay: cPLA2 activity assay in cPLA2-transfected RAW264.7 cells; assay type: cell-based; conditions: TNF-α 10 ng/ml; TFD 0.1 or 1 μM, FFD 1 or 10 μM overnight
T1 construct: expressed in transfected cells; host or cells: RAW264.7
Procedure: cPLA2 activity assay. RAW264.7 cells were transfected with an expression plasmid encoding cPLA2. 24 hours later, the transfected cells were treated with TNF-α (10 ng/ml) and ATK (1 μM), or TFD (0.1 μM or 1 μM), or FFD (1 μM or 10 μM) overnight. Then the cells were collected and lysed. Cell lysate was used for measurement of cPLA2 activity using a commercial ELISA kit (765021, Cayman Chemical). Briefly, protein concentration of the cell lysate was measured by bicinchoninic acid assay and equal amounts of protein from each lysate sample were incubated with cPLA2 substrate (Arachidonoyl Thio-PC) at room temperature. One hour later, DTNB/EGTA was added to stop the enzyme catalysis, and then the absorbance was read at 414 nm using a plate reader (SpectraMax i3x, 5025027A, Molecular Devices).

T1 sequence (P47712 whole entry): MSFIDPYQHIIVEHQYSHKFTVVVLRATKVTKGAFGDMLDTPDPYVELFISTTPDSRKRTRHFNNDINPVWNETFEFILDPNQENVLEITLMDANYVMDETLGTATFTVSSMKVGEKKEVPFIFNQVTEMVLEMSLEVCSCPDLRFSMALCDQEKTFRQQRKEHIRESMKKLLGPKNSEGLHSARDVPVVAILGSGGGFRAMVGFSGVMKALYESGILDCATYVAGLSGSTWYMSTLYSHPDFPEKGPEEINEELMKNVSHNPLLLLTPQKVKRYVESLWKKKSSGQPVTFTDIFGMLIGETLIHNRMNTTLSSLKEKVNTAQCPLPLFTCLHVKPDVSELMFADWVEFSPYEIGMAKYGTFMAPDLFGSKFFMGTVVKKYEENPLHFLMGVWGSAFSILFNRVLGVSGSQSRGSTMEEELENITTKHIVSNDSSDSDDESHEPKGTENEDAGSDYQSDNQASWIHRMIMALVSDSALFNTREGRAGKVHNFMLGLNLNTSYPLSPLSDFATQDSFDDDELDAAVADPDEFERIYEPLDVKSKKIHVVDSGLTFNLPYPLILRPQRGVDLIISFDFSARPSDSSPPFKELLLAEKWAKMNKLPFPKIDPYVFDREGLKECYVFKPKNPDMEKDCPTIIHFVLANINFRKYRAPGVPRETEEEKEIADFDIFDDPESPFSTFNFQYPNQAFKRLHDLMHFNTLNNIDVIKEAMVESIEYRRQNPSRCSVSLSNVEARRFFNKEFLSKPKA

With `CC(C)(C(=O)O)c1ccc(C(O)CCCN2CCC(C(O)(c3ccccc3)c3ccccc3)CC2)cc1` (stereo not drawn) [fexofenadine] the “in vivo inhibition of the TNF-α/NF-κB pathway” value [1] was “dose-dependent inhibition”, the “TNF-tg:NF-κB activated luciferase in vivo” value [1] was “effectively inhibit” and the “differentiation of IFNγ-positive Th1 subpopulation” value [2] was “significantly suppressed”. The “differentiation of Th2, Th17 and regulatory T cells” value [2] was “negligible effects”, the “TNF-α induced AA production” value [3] was “inhibited” and the “TNF-α induced cPLA2 activity” value [4] was “completely abolished”.

With `CC(C)(C)c1ccc(C(O)CCCN2CCC(C(O)(c3ccccc3)c3ccccc3)CC2)cc1` (stereo not drawn) [terfenadine] the “in vivo inhibition of the TNF-α/NF-κB pathway” value [1] was “dose-dependent inhibition”, the “TNF-tg:NF-κB activated luciferase in vivo” value [1] was “effectively inhibit” and the “differentiation of IFNγ-positive Th1 subpopulation” value [2] was “significantly suppressed”. For the same compound, the “differentiation of Th2, Th17 and regulatory T cells” value [2] was “negligible effects”, the “TNF-α induced AA production” value [3] was “inhibited” and the “TNF-α induced cPLA2 activity” value [4] was “completely abolished”.
